This is an account of results in US20250066452A1, “SYNTHETIC AMPHIPATHIC HELICAL PEPTIDES AND TREATMENT METHODS USING SYNTHETIC AMPHIPATHIC HELICAL PEPTIDES” (UNIVERSITY OF MARYLAND, BALTIMORE, priority 2022, published 2025).

For data set [1], the system named is wild-type (WT) HEK293 cells. Briefly: IL-8 in conditioned medium (ELISA) of wild-type HEK293 cells after 20 hours incubation with CD36 ligands. In kind it is cell-based. As to conditions: wildtype HEK293 cells; increasing ligand concentrations; 20 hours (FIG. 8). On the procedure: (§1) Following 20 hours incubation of wild-type (WT) and CD36-expressing (CD36+) HEK293 cells with increasing concentrations of CD36 ligands, the IL-8 levels were determined in conditioned medium by ELISA.
(§2) To study this, the applicant conducted cell culture experiments using wildtype (WT) and CD36+ expressing (CD36+) HEK293 cells, treated with increasing amounts of CD36 ligands. Specifically, the ligands tested were the PAMP lipopolysaccharide (LPS) and the DAMPs high mobility group box 1 protein (HMGB1), Histone H3B, and heat shock protein 60 (HSP60). […] Similarly to HSP60, it is presumed that HSP70 and HSP90 also cause inflammation mediated by the CD36 receptor, and which may be alleviated by the disclosed peptides.
(ELISA stands for enzyme-linked immunosorbent assay.)

The next data set deals with T1, CD36 (Homo sapiens, UniProt P16671).
T1 construct: expressed in transfected cells; host or cells: HEK293
T1 sequence (P16671 whole entry): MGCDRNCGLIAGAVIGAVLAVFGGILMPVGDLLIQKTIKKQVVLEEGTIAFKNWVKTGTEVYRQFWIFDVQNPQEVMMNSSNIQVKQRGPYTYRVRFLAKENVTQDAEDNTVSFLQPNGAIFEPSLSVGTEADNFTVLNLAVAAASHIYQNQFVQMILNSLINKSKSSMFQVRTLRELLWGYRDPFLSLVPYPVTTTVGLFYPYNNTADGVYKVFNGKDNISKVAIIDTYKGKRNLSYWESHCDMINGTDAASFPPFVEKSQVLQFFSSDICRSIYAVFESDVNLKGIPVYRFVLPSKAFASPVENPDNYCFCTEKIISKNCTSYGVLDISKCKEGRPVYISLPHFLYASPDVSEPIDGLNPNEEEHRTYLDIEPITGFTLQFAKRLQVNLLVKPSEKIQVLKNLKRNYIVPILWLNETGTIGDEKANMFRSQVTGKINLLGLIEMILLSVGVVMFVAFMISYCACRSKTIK
As to the kind of experiment: IL-8 in conditioned medium (ELISA) of CD36-expressing HEK293 cells after 20 hours incubation with CD36 ligands. In kind it is cell-based. As to conditions: for IL-8 produced by cells treated with the ligand: CD36-expressing HEK293 cells, increasing ligand concentrations, 20 hours (FIG. 8). On the procedure: as §1
Following 20 hours incubation of CD36-expressing cells with the indicated amounts of the ligands, the IL-8 levels were determined in conditioned medium.
as §2
Additionally, the applicant studied the effects of the above-referenced SAHP L37pA as an inhibitor of CD36-dependent, PAMP/DAMP-induced pro-inflammatory response. See FIGS. 9(a)-9(c) To study this, the applicant conducted cell culture experiments using CD36+ HEK293 cells, treated with increasing amounts of CD36 ligands. […] As controls, no treatment, L37pA alone, and L3D alone were administered.
As controls, no treatment, L37pA alone, and L3D alone were administered. […] L37pA was especially effective in the case of 1 μg/ml and 2.5 μg/ml HMGB1, relative to administrations of HMGB1 alone.
In FIG. 9(c), the DAMP Histone H3B was administered in the amount of 25 μg/ml alone, in combination with 10 μg/ml L37pA, 25 μg/ml L37pA, 10 μg/ml L3D and 25 µg/ml L3D. As controls, no treatment, 10 μg/ml L37pA alone, 25 μg/ml L37pA alone, 10 μg/ml L3D alone, and 25 μg/ml L3D alone were administered.

In a further data set the test system is mice. Briefly: Observation of adverse effects on repetitive daily skin application. In kind it is in vivo.
Data set [2] concerns Complete Freund's Adjuvant (CFA) animal model of chronic inflammatory pain. As to the kind of experiment: Thermal hyperalgesia test (incremental hot plate) in CFA model of chronic inflammatory pain. The class given is in vivo, mice. To be noted: for heat hyperalgesia compared to the inactive L3D-L37pA peptide: Example 3, FIGS. 5(a)-5(e), topical application once a day; for withdrawal latencies to thermal stimuli: CFA in left paw. On the procedure:
The L37pA peptide having the sequence […] (SEQ ID NO: 2) was synthesized by a solid-phase procedure. […] The L37pA and L3D-37pA peptides were formulated into both an intramuscular injectable preparation and a hydrogel or lotion preparation. The intramuscular (IM) injectable formulation contains 0.5 μg/μl of the peptide, with an injection dose of 2 μl/g mouse weight, which equals approximately 20 μg peptide per injection. The hydrogel and lotion formulations each contains 0.2 mg/ml of the peptide. 20-50 μl of the formulations are applied, which is approximately 4-10 μg peptide per single skin treatment. Topical hydrogel and lotion formulations containing a vehicle without any peptide were prepared as additional negative controls.
In this experiment, the peptide was administered via intramuscular injections. The first group of mice (“CFA group”) were injected with 30 μl of Complete Freund's Adjuvant (CFA) in the plantar surface of the left hind paw. The second group of mice (“Vehicle Group”) were injected with Vehicle (saline) instead of CFA. For each of the CFA and Vehicle Groups, the mice were then injected once a day with the following formulations, with “n” representing the number of mice receiving each formulation: […]
Thermal hyperalgesia was performed before the CFA injection. The measurement of baseline thermosensitivity was actually carried out before time 0, but it was assumed that the baseline remained the same at time 0. Injection of CFA in the paw and the intramuscular injection of peptide were performed at the same time. Injections of CFA and peptides were performed in left paws. The right paws of the mice remained intact and were used for comparison.
After administering the L37pA or L3D-37pA peptide, the thermal hyperalgesia test was performed for 30 minutes at 3, 24, and 72 hours post CFA-injection. In the thermal hyperalgesia test, an incremental hot plate with an automatic cut-off temperature of 50° C. was used to induce the nocifensive behaviors of licking a hind paw to identify the thresholds for noxious heat and assess the thermal hyperalgesia. The temperature of the plate at the time when the licking occurred was recorded. The peptides were injected every single day and at 30 minutes prior to the behavior test. In addition, to investigate the effects of the peptides on inflammatory swelling caused by the CFA injection, the thicknesses of the left and right hind paws of the mice were measured post-peptide administration for signs of inflammation. In the figures, *p≤0.05, **p≤0.01, and ***p≤0.001 show comparisons to the Vehicle/L3D-37pA controls at each timepoint.
In this experiment, the peptide was administered topically once a day. The first group of mice (“CFA group”) were injected with 30 μl of Complete Freund's Adjuvant (CFA) in the plantar surface of the left hind paw. The second group of mice (“Vehicle Group”) were injected with Vehicle (saline) instead of CFA. For each of the CFA and Vehicle groups, the topical formulation was then administered to the mice according to the following experiment design:
The topical application of the peptides was carried out 21 hours after the saline or CFA injection and applied […] in the following days. In case of topical application of peptide, the peptides were applied 3 hours before the second measurement of thermosensitivity and applied […] afterwards. Thermal hyperalgesia was performed before administration and after administering the L37pA, L3D-37 pA, or vehicle, at 30 minutes after administration. The thermal hyperalgesia test was performed as described above. In addition, the thicknesses of the left and right hind paws of the mice were measured post-peptide administration for signs of inflammation. In the figures, *p 0.05, **p 0.01, and ***p 0.001 show comparisons to the saline/L3D-37pA controls at each timepoint.
The applicant performed heat hyperalgesia tests similar to the manner discussed above in Example 1. […]

No end group written: not given here.

For “high mobility group box 1 protein [HMGB1]”, the “IL-8 produced by cells treated with the ligand” value in data set [1] was “minimal amount of interleukin 8”; in the data set with CD36 it was “significant amount of IL-8”.
As to “DWLKAFYDKVAEKLKEAFPDWLKAFYDKVAEKLKEAF [Peptide L37pA]”, the “skin irritation or other adverse side effects” value in the data set with mice (chronic topical administration in the therapeutic range of doses) is recorded as “does not induce skin irritation or other adverse side effects”. In addition, in the data set on mice (up to 14 repetitive daily skin applications of hydrogel formulation), the “adverse effects (general toxicity, behavioral changes, weight loss, skin redness, skin erosions)” value was “no adverse effects”.
As for “EKLLELLKKLLELLKKLLPEKLLELLKKLLELLKKLL [ELK-B]”, the “heat hyperalgesia compared to the inactive L3D-L37pA peptide” value in data set [2] (CFA) was “slightly improved heat hyperalgesia compared to the active L3D-L37pA peptide at 1 day, and similar heat hyperalgesia at other timepoints”.
Turning to lipopolysaccharide [LPS], the “IL-8 produced by cells treated with the ligand” value in data set [1] is recorded as “minimal amount of interleukin 8”; at CD36, “significant amount of IL-8”.
For “EKLLELLKKLLELLKKLLPDWLKAFYDKVAEKLKEAF [ELK-B-P-18A]”, the “heat hyperalgesia compared to the inactive L3D-L37pA peptide” value in data set [2] (CFA) was “improved heat hyperalgesia compared to the inactive L3D-L37pA peptide at 3 hours, and particularly improved heat hyperalgesia at 7 days”.
Turning to “L3D-37pA: inactive L37pA peptide where three L-lysine's in each A18 were replaced with D-lysine's disrupting the helical structure; negative control (DWLKAFYDKVAEKLKEAFPDWLKAFYDKVAEKLKEAF; also: three of the four Lys in each A18 segment are D-Lys, places not given here) [Peptide L3D-37pA]”, the “withdrawal latencies to thermal stimuli” value was “reduction was even more exaggerated” in data set [2] (intramuscular peptide approx. 20 μg per injection once a day, 3 hours after CFA (FIG. 2(a))); “only showed a minimal increase” in data set [2] (intramuscular peptide approx. 20 μg per injection once a day, 24 hours after CFA (FIG. 2(a))); “still showed a significant reduction of withdrawal latencies” in data set [2] (intramuscular peptide approx. 20 μg per injection once a day, three days after CFA (FIG. 2(a))); “remained reduced with only slight increase” in data set [2] (topical application 0.2 mg/ml, 24 hours and 3 days after CFA (FIG. 3(a))). In addition, in data set [2] (CFA model, topical hydrogel or lotion, and local intramuscular injection), the “pain sensation in response to stimuli” value was “did not show any pain-reducing activities”. Moreover, the “paw withdrawal temperature of inflamed paws” value in data set [2] (CFA, topical hydrogel or local intramuscular injection, within 3 days post-CFA (FIGS. 2(a), 3(a))) is recorded as “without effect”. Besides, the “heat hyperalgesia (response temperature)” value in data set [2] (Example 2, FIG. 4, CFA, intramuscular injection, 24 h, 3 d, 7 d) is recorded as “did not reduce heat hyperalgesia at any time point”. Also, the “production of IL-8 relative to LPS alone” value in the data set with CD36 (10 ng/ml and 100 ng/ml LPS, 10 μg/ml peptide, CD36+ HEK293 cells, 20 hours) is “ineffective or only slightly effective”. Further, the “production of IL-8 relative to Histone H3B alone” value with CD36 (25 μg/ml Histone H3B, 10 μg/ml and 25 μg/ml peptide, CD36+ HEK293 cells, 20 hours) is recorded as “ineffective or only slightly effective”. Also, the “production of IL-8 relative to HMGB1 alone” value with CD36 (0.25, 1 and 2.5 μg/ml HMGB1, 10 μg/ml peptide, CD36+ HEK293 cells, 20 hours) is “ineffective or only slightly effective”.
